Laboratory results as given in patent US20060063210A1, “Histone deacetylase whole cell enzyme assay” (Methylgene, Inc., priority 2004, published 2006).
Values belong to the compound of their own block, whether it stands above or below them.

Experiments:
[1] = tested on: HDAC (Du145 cells); assay: whole cell deacetylase (HDAC) assay in Du145 cells with Boc-Lys(Ac)-AMC; type: cell-based, human; settings: pre-incubated with inhibitors 16 hours, mean of at least 2 experiments
Experimental: (§1) Freshly trypsinized cells were dispensed into 96-well black Costar E1A/RIA plates (Corning Inc., Corning, N.Y.). Small molecule substrate Boc-Lys(Ac)-AMC (Bachem Biosciences Inc., King of Prussia, Philadelphia) was added to cell suspension with the final concentration of 300 uM. Cells were placed in 37° C. incubator with 5% CO2 for 90 minutes. Reaction was stopped by adding a freshly prepared Flouor-de-Lys™ deleveloper (Biomol, Plymouth Meeting, Philadelphia) with 1 uM TSA (Biomol) in assay buffer (25 mM Tris, HCl pH8.0, 137 mM NaCl, 2.7 mM KCl, 1 mM MgCl2) plus 1% NP-40. With the presence of 1% NP-40, both excellular and intracellular HDAC activity was measured in cultured cells altogether.
(§2) HDAC enzyme assay in intact cells was carried out as described in Example 3.

[2] = tested on: HDAC (HCT116 cells); assay: whole cell deacetylase (HDAC) assay in HCT116 cells with Boc-Lys(Ac)-AMC; type: cell-based, human; settings: for IC50: pre-incubated with inhibitors 16 hours, mean of at least 2 experiments
Experimental: as §1, §2
(§3) Cultured HCT116 cells were counted and distributed to each well of the 96-well plate. […] After addition of Sirtuin substrate (Fluor-de-Lys-SirT1, 500 uM) or HDAC substrate Boc-Lys(Ac)-AMC (300 uM), the cells are further incubated for an additional 2 hours. Reaction was stopped and read as described in Examples 3 and 6.

[3] = tested on: HDAC (Jurkat T cells); assay: whole cell deacetylase (HDAC) assay in Jurkat T cells with Boc-Lys(Ac)-AMC; type: cell-based, human; settings: pre-incubated with inhibitors 16 hours, mean of at least 2 experiments
Experimental: as §1, §2

[4] = tested on: HDAC (293T cells); assay: whole cell deacetylase (HDAC) assay in 293T cells with Boc-Lys(Ac)-AMC; type: cell-based, human; settings: for IC50: pre-incubated with inhibitors 16 hours, mean of at least 2 experiments
Experimental: as §1, §2

[5] = tested on: HDAC (A549 cells); assay: whole cell deacetylase (HDAC) assay in A549 cells with Boc-Lys(Ac)-AMC; type: cell-based, human; settings: pre-incubated with inhibitors 16 hours, mean of at least 2 experiments
Experimental: as §1, §2

[6] = tested on: HDAC (human white blood cells); assay: ex vivo inhibition of whole cell HDAC activity in human white blood cells; type: cell-based; settings: 16 hours incubation
Experimental: Whole blood (human or mouse) was centrifuged at 2500 rpm for 10 minutes at ambient temperature in a Sorvall RT-7 centrifuge (Mandel Scientific Co., Guelph, Ontario). Plasma was removed and buffy coat was collected. Five volumes of Erythrocyte Lysis Buffer (EL) (Qiagen Canada Inc., Mississauga, Ontario) were added to buffy coat. Buffy coat was incubated on ice for 20 minutes before it was centrifuged at 400 g for 10 minutes at 4° C. Supernatant was removed and buffy coat was washed twice with EL buffer and re-centrifugation. Buffy coat was resuspended in RPMI media and cells (white blood cells) were counted with trypan blue exclusion.

[7] = tested on: HDAC (Panc-1 cells); assay: whole cell deacetylase (HDAC) assay in Panc-1 cells with Boc-Lys(Ac)-AMC; type: cell-based, human; settings: pre-incubated with inhibitors 16 hours, mean of at least 2 experiments
Experimental: as §1, §2

[8] = target: T1, SirT1 (HCT116 cells) (Homo sapiens, UniProt Q96EB6); assay: whole cell sirtuin (SirT1) activity in HCT116 cells with Fluor-de-Lys-SirT1 substrate; type: cell-based; settings: for inhibition of whole cell SirT1 activity: 1.5 hours pre-incubation, Fluor-de-Lys-SirT1 500 uM
T1 construct: endogenous in cells; host or cells: HCT116
T1 sequence (Q96EB6 1-747): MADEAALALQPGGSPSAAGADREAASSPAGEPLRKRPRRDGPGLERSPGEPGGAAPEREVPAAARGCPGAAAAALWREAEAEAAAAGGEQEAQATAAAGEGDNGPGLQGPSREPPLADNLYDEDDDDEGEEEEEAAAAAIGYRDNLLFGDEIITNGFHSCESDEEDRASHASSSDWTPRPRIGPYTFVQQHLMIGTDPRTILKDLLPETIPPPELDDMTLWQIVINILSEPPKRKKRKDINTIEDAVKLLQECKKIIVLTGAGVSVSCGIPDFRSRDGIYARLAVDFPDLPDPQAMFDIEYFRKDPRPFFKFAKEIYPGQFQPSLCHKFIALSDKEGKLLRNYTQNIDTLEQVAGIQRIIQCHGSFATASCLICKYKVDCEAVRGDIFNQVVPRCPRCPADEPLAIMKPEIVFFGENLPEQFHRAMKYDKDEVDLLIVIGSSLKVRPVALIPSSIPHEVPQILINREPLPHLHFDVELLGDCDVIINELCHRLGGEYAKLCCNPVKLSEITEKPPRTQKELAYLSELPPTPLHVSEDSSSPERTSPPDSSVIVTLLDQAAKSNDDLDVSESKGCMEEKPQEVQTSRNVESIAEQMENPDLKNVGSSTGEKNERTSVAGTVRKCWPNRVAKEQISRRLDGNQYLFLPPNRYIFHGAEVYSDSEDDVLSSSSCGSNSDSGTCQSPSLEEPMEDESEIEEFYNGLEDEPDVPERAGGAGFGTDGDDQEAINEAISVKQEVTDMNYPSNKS
Excerpt: Cultured cells (HCT116) were trypsinized and counted by trypan blue exclusion. Live cells (2×10^5) were distributed to each well of the 96-well plate. […] Independently, we fixed concentrations of either Fluor-de-Lys-SirT1 substrate or Fluor-de-Lys-SirT2 in whole cells and analyzed the effect of exogeneous NAD+ concentration on whole cell sirtuin activity (FIG. 7b). […] Therefore the reading was done immediately after stopping.
as §3, with “6. […] This observation is consistent with our finding in Example 7 that TSA can not inhibit class III (Sirtuins) in vitro.” for “6.”

[9] = target: T2, recombinant Sirt1 (Homo sapiens, UniProt Q96EB6); assay: recombinant Sirt1 enzyme assay in vitro (Fluor-de-Lys-SirT1 substrate); type: biochemical; settings: for inhibition of recombinant Sirt1 in vitro: TSA up to 10 uM
T2 construct: purchased Biomol
T2 sequence (Q96EB6 1-747): T1 sequence (Q96EB6 1-747)
Excerpt: (§4) Human SirT1, 2, 3 recombinant enzymes were purchased from Biomol (Biomol, Plymouth Meeting, Philadelphia).
(§5) Reaction is read as described in Example 3.

[10] = target: T3, recombinant Sirt3 (Homo sapiens, UniProt Q9NTG7); assay: recombinant Sirt3 enzyme assay in vitro (Fluor-de-Lys-SirT2 substrate); type: biochemical
T3 construct: purchased Biomol
T3 sequence (Q9NTG7 1-399): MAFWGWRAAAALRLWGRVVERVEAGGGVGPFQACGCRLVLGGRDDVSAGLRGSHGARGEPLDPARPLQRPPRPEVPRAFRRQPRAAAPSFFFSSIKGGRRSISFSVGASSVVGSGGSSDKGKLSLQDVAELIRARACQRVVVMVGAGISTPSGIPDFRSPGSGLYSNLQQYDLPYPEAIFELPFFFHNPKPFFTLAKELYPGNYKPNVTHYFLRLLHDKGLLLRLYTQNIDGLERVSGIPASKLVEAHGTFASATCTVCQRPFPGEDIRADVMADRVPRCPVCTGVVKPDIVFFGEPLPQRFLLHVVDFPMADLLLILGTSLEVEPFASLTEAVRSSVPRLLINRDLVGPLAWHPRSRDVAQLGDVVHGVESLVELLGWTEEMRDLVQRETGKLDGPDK
Excerpt: as §4, §5

[11] = target: T4, recombinant Sirt2 (Homo sapiens, UniProt Q8IXJ6); assay: recombinant Sirt2 enzyme assay in vitro (Fluor-de-Lys-SirT2 substrate); type: biochemical; settings: for inhibition of recombinant Sirt2 in vitro: TSA up to 10 uM; for IC50: 45 minutes, read-out: IC50 against recombinant Sirt2
T4 construct: purchased Biomol
T4 sequence (Q8IXJ6 1-389): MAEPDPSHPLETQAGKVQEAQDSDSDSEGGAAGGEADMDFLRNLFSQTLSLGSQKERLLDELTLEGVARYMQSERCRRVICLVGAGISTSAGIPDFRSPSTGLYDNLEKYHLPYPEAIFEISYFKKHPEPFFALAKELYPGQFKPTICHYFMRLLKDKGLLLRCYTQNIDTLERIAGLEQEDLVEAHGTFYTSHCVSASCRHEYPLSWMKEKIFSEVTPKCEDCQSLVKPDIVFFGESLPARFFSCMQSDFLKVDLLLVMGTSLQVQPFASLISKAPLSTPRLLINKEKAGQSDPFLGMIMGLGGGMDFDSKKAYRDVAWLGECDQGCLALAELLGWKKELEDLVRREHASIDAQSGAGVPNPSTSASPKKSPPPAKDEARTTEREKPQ
Excerpt: as §4, §5

[12] = target: T5, SirT1 (mouse white blood cells) (Mus musculus, UniProt Q923E4); assay: ex vivo whole cell Sirt1 activity in mouse white blood cells; type: cell-based; settings: 90 minute incubation, 200 uM Fluor-de-Lys Sirt1
T5 construct: from tissue; host or cells: mouse white blood cells
T5 sequence (Q923E4 1-737): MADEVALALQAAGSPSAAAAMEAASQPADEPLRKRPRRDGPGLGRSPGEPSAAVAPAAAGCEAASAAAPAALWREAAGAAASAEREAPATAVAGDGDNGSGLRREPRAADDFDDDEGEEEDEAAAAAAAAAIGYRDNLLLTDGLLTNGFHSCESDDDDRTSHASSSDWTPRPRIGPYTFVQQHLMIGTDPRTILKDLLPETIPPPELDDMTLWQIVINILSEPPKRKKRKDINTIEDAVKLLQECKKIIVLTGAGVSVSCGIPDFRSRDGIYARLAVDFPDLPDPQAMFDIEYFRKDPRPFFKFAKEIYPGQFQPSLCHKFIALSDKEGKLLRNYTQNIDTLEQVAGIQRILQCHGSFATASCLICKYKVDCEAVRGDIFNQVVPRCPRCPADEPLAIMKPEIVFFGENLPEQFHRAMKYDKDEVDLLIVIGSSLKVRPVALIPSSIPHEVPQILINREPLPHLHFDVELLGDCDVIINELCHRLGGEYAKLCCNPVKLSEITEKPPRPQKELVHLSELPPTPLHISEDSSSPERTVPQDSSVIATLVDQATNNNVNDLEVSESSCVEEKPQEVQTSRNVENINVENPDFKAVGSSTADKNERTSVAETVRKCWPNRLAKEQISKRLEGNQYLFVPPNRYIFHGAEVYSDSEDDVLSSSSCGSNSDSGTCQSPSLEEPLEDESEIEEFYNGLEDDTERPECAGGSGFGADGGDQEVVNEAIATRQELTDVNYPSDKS
Experimental: Mouse blood was collected in heparin tubes. Erythrocytes were lysed with five volumes of Erythrocyte Lysis buffer (EL, Qiagen Canada Inc, Mississauga, Ontario). White blood cells were recovered by centrifugation (400×g for 5 min), washed and resuspended in RPMI (+10% FBS), then counted. […] After 90 minute incubation, reaction was stopped with one volume of assay buffer (50 mM Tris-Ci pH 8.0, 137 mM NaCl, 2.7 mM KCl, 1 mM MgCl2) supplemented with 1× Developer II (BioMol, Plymouth Meeting, Philadelphia) and 1% NP40.

Structure (SMILES): NC(=O)c1ccc[n+]([C@@H]2O[C@H](COP(=O)([O-])OP(=O)(O)OC[C@H]3O[C@@H](n4cnc5c(N)ncnc54)[C@H](O)[C@@H]3O)[C@@H](O)[C@H]2O)c1 [NAD+]
effect of exogenous NAD+ on whole cell sirtuin activity ([8]; HCT116 cells, fixed Fluor-de-Lys-SirT1 or Fluor-de-Lys-SirT2 substrate): no effect on whole cell sirtuin activity

Structure (SMILES): Oc1ccc(C=Cc2cc(O)cc(O)c2)cc1 [Resveratrol]
activation of recombinant Sirt1 in vitro [9]: can activate Sirt1 enzymes in vitro in a dose dependent manner
activation of whole cell sirtuin (SirT1) activity ([8]; HCT116 cells, 1.5 hour pre-incubation): could activate whole cell sirtuin (SirT1) activity in a dose-dependent manner
EC50 ([10]; substrate FldSirt2, activation, read-out: EC50 to activate recombinant Sirt3 in vitro): > 2000 µM
EC50 ([11]; substrate FldSirt2, activation, read-out: EC50 to activate recombinant Sirt2 in vitro): 912 µM

Structure (SMILES): CC(/C=C/C(=O)NO)=C\[C@@H](C)C(=O)c1ccc(N(C)C)cc1 [TSA, trichostatin A]
inhibition of whole cell HDAC activity ([2]; Boc-Lys(Ac)-AMC 300 uM): could inhibit whole cell HDAC activity
inhibition of recombinant Sirt1 in vitro [9]: does not inhibit
IC50 ([9]; substrate FldSirt1, 45 minutes, read-out: IC50 against recombinant Sirt1): > 10 µM
inhibition of whole cell SirT1 activity ([8]; HCT116 cells): not
inhibition of recombinant Sirt2 in vitro [11]: does not inhibit
IC50 ([11]; substrate FldSirt2): > 10 µM

Structure (SMILES): NC(=O)c1cccnc1 [nicotinamide]
quenching of the whole cell sirtuin reaction ([8]; HCT116 whole cells): ineffective at quenching the reaction

Structure (SMILES): Cc1ccc(C(=O)Nc2ccc(S(=O)(=O)O)c3cc(S(=O)(=O)O)cc(S(=O)(=O)O)c23)cc1NC(=O)c1cccc(NC(=O)Nc2cccc(C(=O)Nc3cc(C(=O)Nc4ccc(S(=O)(=O)O)c5cc(S(=O)(=O)O)cc(S(=O)(=O)O)c45)ccc3C)c2)c1 [suramin]
inhibition of recombinant Sirt1 in vitro [9]: inhibits
inhibition of whole cell SirT1 activity ([8]; HCT116 cells): inihibits whole cell SirT1 activity in a dose-dependent manner
inhibition of recombinant SirT3 in vitro [10]: inhibits
IC50 ([10]; substrate FldSirt2, 45 minutes, read-out: IC50 against recombinant Sirt3): 575 µM
inhibition of recombinant Sirt2 in vitro [11]: inhibits
IC50 ([11]; substrate FldSirt2): 14 µM
inhibition of SirT1 in whole mouse white blood cells [12]: inhibits SirT1 enzymes in whole white blood cells

Structure (SMILES): CC(=O)O[C@H]1C(=O)[C@@]2(C)[C@H]([C@H](OC(=O)c3ccccc3)[C@]3(O)C[C@H](OC(=O)[C@H](O)[C@@H](NC(=O)c4ccccc4)c4ccccc4)C(C)=C1C3(C)C)[C@]1(OC(C)=O)CO[C@@H]1C[C@@H]2O [taxol]
effect on HDAC activity in whole cells [4]: no effect on HDAC activity
IC50 [4]: > 50 µM

More lines, main results first:

IC50 [1]: 0.05 µM
IC50 [2]: 0.06 µM
IC50 [3]: 0.04 µM
IC50 [5]: 0.02 µM
Structure (SMILES): O=C(/C=C/c1ccc(CN(CCO)CCc2c[nH]c3ccccc23)cc1)NO [LAQ-824]
IC50 [4]: 0.04 µM
inhibition of whole cell HDAC activity in human white blood cells [6]: dose-dependent inhibition

IC50 [1]: 0.3 µM
IC50 [2]: 3 µM
IC50 [3]: 0.3 µM
IC50 [7]: 0.5 µM
IC50 [5]: 0.4 µM
Structure (SMILES): Nc1ccccc1NC(=O)c1ccc(CNC(=O)OCc2cccnc2)cc1 [MS-275]
IC50 [4]: 2 µM
